In paper PMC3527569, “Anti-Inflammatory and Vasoprotective Activity of a Retroviral-Derived Peptide, Homologous to Human Endogenous Retroviruses: Endothelial Cell Effects” (PLoS ONE, 2012):
Where a SMILES comes first, the peptide text is derived from it. Bridges are numbered along the chain shown (N, C = ends). Roman numbers before positions name the chains, in order.

Experiments:
[1] = test system: TNF-α; assay: LPS-induced TNF-α release by human PBMC (sandwich ELISA); type: cell-based; conditions: human PBMC + LPS (S. typhosa), 18-24 h, 37°C, peptide 10 nM-100 µM in triplicate, IC50 estimated from graph, representative set, one volunteer
Protocol: Cytokine Assays: One-hundred µL of PBMC (2 x 10^6/ml in Complete Medium) were added to each well of a flat-bottom, 96-well tissue culture plate. To each well was then added 50 µL of media or peptide (4X desired final concentration; in Complete Medium) and 50 µL of lipopolysaccharide (LPS; S. typhosa; Sigma, St. Louis, MO; 400 ng/ml Complete Medium). Each peptide was tested in triplicate at 5 log10 concentrations ranging from 100 µM to 10 nM. Plates were incubate 18-24 h at 37°C in 5% humidified CO2. Plates were then centrifuged and 100 µL of supernatant removed from each well and stored frozen at -80°C until assayed. Cytokines (TNF-α, IL-1β, IL-6, GM-CSF) were measured by sandwich ELISA assays (R & D Systems; Minneapolis, MN) using the manufacturer’s instructions. The released cytokine concentration was determined from a standard curve using recombinant cytokine provided with each kit.

[2] = test system: LTB4; assay: Zymosan-induced LTB4 release by adherent human PBMC; type: cell-based; conditions: 1 h peptide then Zymosan 90 min, IC50 estimated from graph
Protocol: Platelet Activating Factor (PAF) and Leukotriene B4 (LTB4) Assays: PBMC were prepared as described above and adjusted to 3.3 x 10^6 cells/ml in RPMI-1640 medium containing 5 mg/ml HSA (Sigma, St. Louis, MO). To each well of a 48-well tissue culture plate was added 0.3 ml of cell suspension. The plate was incubated for 2 h at 37°C and 5% CO2 to allow cells to adhere. The wells were then washed 3X with HHBSS (Hank’s Balanced Salt Solution with 5 mg/ml HSA) at room temperature (RT). One-hundred seventy-five µL of HHBSS or test material in HHBSS was then added to each well and the plates incubated for 1 h at 37°C and 5% CO2. Samples were set up in quadruplicate. To each of duplicate wells for each sample was then added 175 µL of HHBSS or HHBSS containing 600 µg/ml of Zymosan (Sigma, St. Louis, MO). The plates were then incubated for 90 min at 37°C and 5% CO2. The plates were centrifuged and supernatants removed for quantitation of PAF or LTB4 according to the kit manufacturer’s (Amersham Pharmacia; Piscataway, NJ) instructions. The released PAF or LTB4 concentration was determined from a standard curve using standards provided with each kit.

[3] = test system: Chemotaxis; assay: Monocyte and neutrophil chemotaxis to FMLP (micro-chemotaxis chamber); type: cell-based, human; conditions: cells pre-incubated 60 min at 37°C with peptide (10 nM-100 µM), FMLP 10^-8 or 10^-9 M, 90 min, triplicate
Protocol: Monocyte and Neutrophil Chemotaxis: For monocyte chemotaxis, PBMC were prepared as described above but washed and resuspended to 2 x 10^6/ml in HBSS (10 mM HEPES, 0.5% BSA [low-endotoxin; Sigma, St. Louis, MO], pH 7.0). The percentage of monocytes in the cell preparation was determined by myeloperoxidase staining of fixed, cytospin-prepared slides and usually ranged between 15-25%. For neutrophil chemotaxis, neutrophils were prepared as described above and routinely contained 97-99% neutrophils. Effects of test materials on chemotaxis were measured using 48-well micro-chemotaxis chambers (Neuro-Probe; Cabin John, MD). Briefly, to 450 µL of cell suspension in a polypropylene centrifuge tube was added 50 µL of buffer or test material. Each sample was tested in triplicate. The tubes were then incubated for 60 min at 37°C in a shaking water bath. […] The stained filters were mounted on slides and the number of cells migrating though the filters determined under 600X magnification for 5 fields/well. Inhibition of chemotaxis was determined using that slide for which the positive control (untreated cells; either 10^-8 or 10^-9 M FMLP) gave the strongest response and was calculated in the following manner: […]

[4] = test system: HUVEC; assay: Staurosporine-induced apoptosis in HUVEC (Cell Death Detection ELISA); type: cell-based, human; conditions: for protection against staurosporine-induced apoptosis: 50 µM peptide 3 h before staurosporine (500 nM), measured 18 h after staurosporine (Figure 11B)
Protocol: Apoptosis was measured in HUVEC using the Cell Death Detection ELISA^PLUS kit (Roche Diagnostics; Indianapolis, IN) according to the manufacturer's instructions. This assay is based on a quantitative sandwich-enzyme-immunoassay using mouse monoclonal antibodies directed against both DNA and histones, respectively. It allows the specific determination of mono- and oligonucleosomes in the cytoplasmic fraction of cell lysates (apoptosis) and in the supernatant of dying cells (necrosis). The apoptotic index (AI) was calculated as
where treatment refers to use of a known apoptosis- or necrosis-inducing agent (staurosporine, TNF-α).

Compound	IC50 [1] [µM]	IC50 [2] [µM]	IC50 [3] [nM]	protection against staurosporine-induced apoptosis [4]	effect of L-NAME pretreatment on protective effect against staurosporine-induced apoptosis ([4]; 2 mM L-NAME 5 h, then 50 µM peptide 3 h, staurosporine 500 nM ON (Figure 12))	maximal protection against staurosporine-induced apoptosis ([4]; peptide added 3 h before staurosporine, up to 50 µM peptide, quadruplicate wells (Figure 10A, 10C)) [%]
CC(C)C[C@H](NC(=O)CNC(=O)CNC(=O)[C@H](CCC(=O)O)NC(=O)[C@H](CCCCN)NC(=O)[C@H](CC(C)C)NC(=O)[C@H](Cc1ccccc1)NC(=O)[C@H](CC(C)C)NC(=O)[C@H](CC(C)C)NC(=O)[C@H](CC(=O)O)NC(=O)[C@H](CC(C)C)NC(=O)CNC(=O)[C@H](CCCNC(=N)N)NC(=O)[C@H](CCCNC(=N)N)NC(=O)[C@H](CC(N)=O)NC(=O)[C@H](CCC(N)=O)NC(=O)[C@@H](N)CC(C)C)C(=O)N[C@@H](CSSC[C@H](NC(=O)[C@H](CC(C)C)NC(=O)CNC(=O)CNC(=O)[C@H](CCC(=O)O)NC(=O)[C@H](CCCCN)NC(=O)[C@H](CC(C)C)NC(=O)[C@H](Cc1ccccc1)NC(=O)[C@H](CC(C)C)NC(=O)[C@H](CC(C)C)NC(=O)[C@H](CC(=O)O)NC(=O)[C@H](CC(C)C)NC(=O)CNC(=O)[C@H](CCCNC(=N)N)NC(=O)[C@H](CCCNC(=N)N)NC(=O)[C@H](CC(N)=O)NC(=O)[C@H](CCC(N)=O)NC(=O)[C@@H](N)CC(C)C)C(=O)O)C(=O)O [MN10021] (I: H-LQNRRGLDLLFLKEGGLC-OH / II: H-LQNRRGLDLLFLKEGGLC-OH; disulfide I:18-II:18)	6.2	6.2	250	significant protection	no effect	~60
H-LGGEKLFLLDGRNQLC-OH (disulfide (positions not given here)) [MN20050]	> 100	> 100	> 100000	no protective effective		
